# Where two headings read alike, the source gives them in different places.
# Legend:
# α-glucosidase = test: in vitro α-glucosidase inhibitory activity; type: biochemical, Homo sapiens
# Procedure: The inhibitory analyses for α-glucosidase were carried out in accordance with the protocols reported in the literature; the inhibitory activities of the synthesized hybrids were calculated utilizing screening assay tools.
# α-amylase = biological target: T1, α-amylase (Homo sapiens, UniProt P04746); test: in vitro α-amylase inhibitory activity; type: biochemical
# T1 sequence (P04746 16-511): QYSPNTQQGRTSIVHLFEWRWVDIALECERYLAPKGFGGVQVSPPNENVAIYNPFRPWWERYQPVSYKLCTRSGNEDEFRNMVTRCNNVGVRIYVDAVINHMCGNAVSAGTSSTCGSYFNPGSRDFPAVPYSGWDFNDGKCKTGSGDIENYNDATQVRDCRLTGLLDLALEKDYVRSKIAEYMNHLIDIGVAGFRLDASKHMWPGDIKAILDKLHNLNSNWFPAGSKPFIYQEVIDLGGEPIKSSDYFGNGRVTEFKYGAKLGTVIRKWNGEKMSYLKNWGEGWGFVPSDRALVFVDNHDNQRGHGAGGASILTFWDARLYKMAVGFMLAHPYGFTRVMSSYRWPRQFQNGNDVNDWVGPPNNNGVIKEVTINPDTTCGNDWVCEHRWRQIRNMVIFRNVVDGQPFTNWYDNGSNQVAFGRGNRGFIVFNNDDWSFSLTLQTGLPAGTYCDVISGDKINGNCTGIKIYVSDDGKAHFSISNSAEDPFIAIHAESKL
# Procedure: The test samples were added in alpha-amylase solution. The enzyme solution was prepared with enzyme and buffer solution. The mixture of the samples and enzyme was then incubated. Then, starch and dinitrosalicylic acid solution was added. The same was performed for both test compounds and the standard drug. […] The percent alpha-amylase inhibition activity and its IC50 values were calculated and confirmed as per the previous procedure.
# PTP1B = biological target: T2, PTP1B (Homo sapiens, UniProt P18031); test: PTP1B assay (pNPP substrate); type: biochemical
# T2 sequence (P18031 1-435): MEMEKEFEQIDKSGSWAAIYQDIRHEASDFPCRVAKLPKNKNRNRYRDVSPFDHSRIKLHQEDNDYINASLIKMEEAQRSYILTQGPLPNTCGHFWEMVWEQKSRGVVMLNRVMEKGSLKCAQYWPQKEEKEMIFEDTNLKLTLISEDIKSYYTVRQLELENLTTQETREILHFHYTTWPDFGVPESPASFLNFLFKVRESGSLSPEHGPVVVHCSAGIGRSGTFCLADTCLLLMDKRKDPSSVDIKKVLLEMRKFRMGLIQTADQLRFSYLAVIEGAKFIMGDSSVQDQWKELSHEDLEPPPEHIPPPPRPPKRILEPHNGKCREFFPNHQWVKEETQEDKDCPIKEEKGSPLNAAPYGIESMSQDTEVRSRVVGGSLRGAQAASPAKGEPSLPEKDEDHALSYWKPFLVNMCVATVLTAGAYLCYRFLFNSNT
# Procedure: The aforementioned newly synthesize succinimides and thiazolidinedione hybrids were tested against the PTP1B enzyme to determine their ability to inhibit the negative regulation of insulin as well as leptin signaling. The PTP1B test was performed with a small modification to the method described in the publications. The enzyme efficiency was evaluated using […] (pNPP) as a substrate. For the buffer solution, 0.5 millimolar (mM) of ethylene diamine tetraacetic acid (EDTA), 1 mM of mercaptoethanol, 0.55 mM of dithiothreitol (DTT), and 12.49 mM of TRIS hydrochloride (ph = 7.4) were used. The experiment was carried out by mixing 10.0 μL of the test compound solutions with 20.0 μL of the enzyme (1 μg/mL), subsequently injecting 40.0 μL of 4.0 mM 4-nitrophenyl dihydrogen phosphate in 130.5 μL of the prescribed buffer in a microplate well at 37 °C for 10 min. pNP was formed during the enzymatic process, which was monitored for 30 min. The IC50 values were derived using a non-linear regression analysis of the fraction of the product generated vs. the log of the inhibitory concentration.
# human DPP-4 enzyme = biological target: T3, human DPP-4 enzyme (Homo sapiens, UniProt P27487); test: DPP-4 activity bioassay; type: biochemical; details: for inhibition at 31.25 µM / inhibition at 62.5 µM / inhibition at 125 µM / inhibition at 250 µM: read-out: DPP4 (inhibition) (converted); for inhibition at 500 µM: read-out: DPP4 (inhibition); for IC50: read-out: IC50 DPP4
# T3 construct: purchased
# Procedure: All succinimides and thiazolidinedione hybrids were tested for DPP-4 inhibitory effects on a human DPP-4 enzyme using the methodology published before. The DPP-4 kit was used to measure the inhibition. L-thiazolidine (P32/98) was included as a reference. The hybrids and DPP-4 enzyme were both adulterated 1/50 in the assay buffer (PH = 7.4, 25 mM Tris). Following that, a microplate well was filled with 5 μL of assay buffer, 3 μL of enzyme solution, and 2 μL of adequately diluted test chemical solutions. After a 12-min incubation period at 37.5 °C, a diluted substrate solution of 25 μL was added into the solution. A multi-mode reader was used to assess the fluorescence. […] PRISM5 was used to calculate the IC50 values and compare the inhibition ratio to the control without the inhibitor.
# [1] = 31.25 µM, read-out: % α-Amylase Inhibition (converted)
# [2] = 62.5 µM, read-out: % α-Amylase Inhibition (converted)
# [3] = 125 µM, read-out: % α-Amylase Inhibition (converted)
# [4] = 250 µM, read-out: % α-Amylase Inhibition (converted)
# [5] = 500 µM, read-out: % α-Amylase Inhibition
# [6] = read-out: % α-Amylase Inhibition
# T3 sequence (P27487 whole entry): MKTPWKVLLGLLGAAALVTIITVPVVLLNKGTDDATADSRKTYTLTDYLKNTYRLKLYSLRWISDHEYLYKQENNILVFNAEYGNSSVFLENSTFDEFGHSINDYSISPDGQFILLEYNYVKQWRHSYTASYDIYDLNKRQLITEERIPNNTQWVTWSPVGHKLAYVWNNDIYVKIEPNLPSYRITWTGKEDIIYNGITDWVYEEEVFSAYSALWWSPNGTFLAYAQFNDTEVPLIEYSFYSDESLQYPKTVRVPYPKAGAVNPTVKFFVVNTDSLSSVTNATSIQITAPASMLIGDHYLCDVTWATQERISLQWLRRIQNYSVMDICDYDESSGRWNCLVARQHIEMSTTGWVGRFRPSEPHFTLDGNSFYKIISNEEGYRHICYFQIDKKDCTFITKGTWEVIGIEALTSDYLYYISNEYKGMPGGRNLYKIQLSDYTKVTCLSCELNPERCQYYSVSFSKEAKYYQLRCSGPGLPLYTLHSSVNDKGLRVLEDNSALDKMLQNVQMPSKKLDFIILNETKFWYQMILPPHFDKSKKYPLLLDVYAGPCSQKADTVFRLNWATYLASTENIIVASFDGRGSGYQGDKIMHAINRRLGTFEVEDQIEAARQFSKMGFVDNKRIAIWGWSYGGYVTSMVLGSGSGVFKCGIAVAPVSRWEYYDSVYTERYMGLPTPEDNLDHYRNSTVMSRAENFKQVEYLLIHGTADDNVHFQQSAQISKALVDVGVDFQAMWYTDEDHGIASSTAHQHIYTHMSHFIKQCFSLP
Structure (SMILES),IC50 (α-glucosidase),% α-Glucosidase Inhibition (α-glucosidase; 31.25 µM),% α-Glucosidase Inhibition (α-glucosidase; 62.5 µM),% α-Glucosidase Inhibition (α-glucosidase; 125 µM),% α-Glucosidase Inhibition (α-glucosidase; 250 µM),% α-Glucosidase Inhibition (α-glucosidase; 500 µM),IC50 (α-amylase),inhibition at 31.25 µM (α-amylase; [1]),inhibition at 62.5 µM (α-amylase; [2]),inhibition at 125 µM (α-amylase; [3]),inhibition at 250 µM (α-amylase; [4]),inhibition at 500 µM (α-amylase; [5]),IC50 (PTP1B),inhibition at 31.25 µM (PTP1B),inhibition at 62.5 µM (PTP1B),inhibition at 125 µM (PTP1B),inhibition at 250 µM (PTP1B),inhibition at 500 µM (PTP1B),inhibition at 31.25 µM (human DPP-4 enzyme),inhibition at 62.5 µM (human DPP-4 enzyme),other results
CC(C)(/C=C1\SC(=O)N(C(=O)CN2CCOCC2)C1=O)[C@@H]1CC(=O)NC1=O [10a],16.5 µM,54.56 ± 1.73%,65.44 ± 0.58%,72.93 ± 0.67%,75.58 ± 0.63%,79.49 ± 0.6%,21.9 µM,54.6%,57.5%,72.8%,77.6%,82.61 ± 0.77%,12 µM,62.9%,69.2%,75.1%,82.6%,88.61 ± 0.43%,67.5%,72.5%,inhibition at 125 µM (human DPP-4 enzyme): 77.2%; inhibition at 250 µM (human DPP-4 enzyme): 82.5%; inhibition at 500 µM (human DPP-4 enzyme): 87.45 ± 0.59%; IC50 (human DPP-4 enzyme): 5.38 µM
CN1C(=O)C[C@@H](C(C)(C)/C=C2\SC(=O)N(C(=O)CN3CCOCC3)C2=O)C1=O [10b],27.4 µM,51.72 ± 0.66%,57.68 ± 0.49%,70.60 ± 0.46%,75.62 ± 0.40%,79.48 ± 0.74%,21.2 µM,48.5%,65.5%,70.5%,74.7%,79.37 ± 0.69%,16.8 µM,57.2%,65.8%,72.8%,77.1%,85.3 ± 2.87%,54.3%,62.7%,inhibition at 125 µM (human DPP-4 enzyme): 69.4%; inhibition at 250 µM (human DPP-4 enzyme): 75.8%; inhibition at 500 µM (human DPP-4 enzyme): 81.3 ± 1.42%; IC50 (human DPP-4 enzyme): 20.5 µM
CC(C)(/C=C1\SC(=O)N(C(=O)CN2CCOCC2)C1=O)[C@@H]1CC(=O)N(c2ccccc2)C1=O [10c],25.6 µM,62.72 ± 1.01%,65.08 ± 0.47%,71.42 ± 0.43%,76.58 ± 1.12%,81.53 ± 0.71%,28.3 µM,62.4%,67.6%,74.3%,81.7%,88.6 ± 1.12%,19 µM,53.5%,63.4%,69.3%,73.4%,79.4 ± 1.04%,57.4%,62.6%,inhibition at 125 µM (human DPP-4 enzyme): 67.4%; inhibition at 250 µM (human DPP-4 enzyme): 72.6%; inhibition at 500 µM (human DPP-4 enzyme): 77.4 ± 1.51%; IC50 (human DPP-4 enzyme): 12.9 µM
COc1ccc(N2C(=O)C[C@@H](C(C)(C)/C=C3\SC(=O)N(C(=O)CN4CCOCC4)C3=O)C2=O)cc1 [10e],13.2 µM,52.58 ± 0.63%,74.94 ± 1.13%,79.84 ± 0.30%,81.08 ± 0.47%,86.44 ± 0.58%,9.66 µM,73.4%,78.2%,82.5%,88.6%,92.7 ± 1.3%,19.5 µM,56.4%,63.5%,67.2%,75.8%,83.51 ± 0.54%,61.3%,67.3%,inhibition at 125 µM (human DPP-4 enzyme): 74.5%; inhibition at 250 µM (human DPP-4 enzyme): 82.5%; inhibition at 500 µM (human DPP-4 enzyme): 88.5 ± 2.06%; IC50 (human DPP-4 enzyme): 14.7 µM
"C[C@H]1O[C@H](O[C@H]2[C@H](O)[C@@H](O)[C@@H](O[C@H]3[C@H](O)[C@@H](O)C(O)O[C@@H]3CO)O[C@@H]2CO)[C@H](O)[C@@H](O)[C@@H]1N[C@H]1C=C(CO)[C@@H](O)[C@H](O)[C@H]1O (some centres unmarked) [Acarbose, acarbose, reference compound]",,71.22 ± 0.47%,76.44 ± 0.28%,80.90 ± 1.11%,,94.40 ± 0.03%,,,,,,,,,,,,,,,inhibition at 31.25 µM (α-amylase; [6]): 70.8%; inhibition at 62.5 µM (α-amylase; [6]): 75.4%; inhibition at 125 µM (α-amylase; [6]): 80.6%; inhibition at 250 µM (α-amylase; [6]): 86.5%; inhibition at 500 µM (α-amylase; [6]): 93.1 ± 1.04%
"C[C@H]1[C@H](C)CC[C@]2(C(=O)O)CC[C@]3(C)C(=CC[C@@H]4[C@@]5(C)CC[C@H](O)C(C)(C)[C@@H]5CC[C@]43C)[C@H]12 [Ursolic acid, ursolic acid, reference compound]",,,,,,,,,,,,,,71.8%,76.4%,81.6%,87.5%,94.1 ± 1.04%,,,

# — publication PMC9918900, “New Succinimide–Thiazolidinedione Hybrids as Multitarget Antidiabetic Agents: Design, Synthesis, Bioevaluation, and Molecular Modelling Studies” (Molecules, 2023)
